# From patent publication US9073892B2, “Indazolyl triazol derivatives” (Merck Serono S.A., priority 2010, dated 2015)
# Where a name gives a salt, the structure may show the parent alone.
# Experiments:
# LPS-induced IL-6 release = test: LPS-induced cytokine release in mice (IL-6); format: in vivo; conditions: female C57B6 mice; for inhibition of LPS-induced IL-6 release in mice: 30 min before LPS 1 mg/kg i.p., serum 2 hours after LPS
# Description: (§1) LPS-Induced Cytokine Release in Mice
# (§2) Female C57B6 mice (8-10 weeks 4-6 mice/group) were dosed p.o. with vehicle (40% Kleptose in water), reference compound dexamethasone (1 mg/kg) or three different doses of compound 1 (10, 30 and 60 mg/kg at 10 mL/kg). 30 minutes after compound administrations mice were injected i.p. with LPS (0111:B4, 1 mg/kg). 2 hours after LPS injection mice were sacrificed. Serum was collected; cytokine levels (TNF-α and IL-6) were detected by ELISA or OBA.
# [1] = test system: IL-6 secretion in human PBMC; test: IRAK IL-6 secretion functional assay in human PBMC; format: cell-based; conditions: preincubated 1 h with test article, stimulated with 10 ng/ml IL1, 18-20 h, ELISA
# Description: IRAK IL-6 Secretion Functional Assay in Human PBMC
# Human PBMCs from healthy volunteers were purified from buffy coats of heparinized whole blood by density centrifugation on Ficoll-Hypaque. Isolated PBMCs were washed twice in PBS, counted, and seeded at a density of 7×10^4 cells/well in 180 µl of complete RPMI 1640 medium containing 10% heat-inactivated FBS. PBMC were preincubated for 1 h with serial dilutions of test article dissolved in DMSO (final DMSO concentration 0.33%) at 37° C. in a 5% CO2 incubator. PBMC were then stimulated with 10 ng/ml of IL1-(final volume […]) and incubation was continued for 18-20 h. The supernatants were collected and IL-6 was quantified using the Duo-set ELISA kit (R&D Systems) following manufacturer's instructions
# LPS-induced TNFα release = test: LPS-induced cytokine release in mice (TNFα); format: in vivo; conditions: female C57B6 mice; for inhibition of LPS-induced TNFα release in mice: 30 min before LPS 1 mg/kg i.p., serum 2 hours after LPS
# Description: as §1, §2
# [2] = test system: IL1β-induced IL8 release in THP1 cells; test: IRAK IL8 secretion functional assay; format: cell-based; conditions: Homo sapiens; THP-1 cells, IL1β 100 ng/ml overnight, IL8 by HTRF; read-out: IC50, Secretion THP-1/IL-β induced IL8 release
# Summary of the method: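 THP-1 cells (30,000/well, RPMI 1640) were incubated overnight at 37 °C, 5% CO2 with compound (20 μM to 1 nM) plus IL1β at 100 ng/ml final. IL-8 in the supernatant was measured by HTRF with europium cryptate- and XL665-labelled anti-IL8 antibodies, read after 3 h at 30 °C.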
# IRAK1/4 human = test system: T1, IRAK1/4 human; test: IRAK1/4 phosphorylation IC50 (enzymatic assay, table 2); format: biochemical; conditions: human IRAK1/4 phosphorylation
# T1 construct: fused on or other part: His tag and TEV cleavage site at the N-terminus
# Summary of the method: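 Human IRAK-1 or IRAK-4, each carrying a His-TEV tag, was incubated with ATP and compounds in DMSO ranging from 20 µM to 1 nM in 384-well plates, and IRAK-4 reactions also contained STK1-biotin peptide. Reactions ran in 50 mM Hepes pH7.0 with MgCl2, DTT, EGTA and BSA for 2 or 3 hours, with 2% DMSO controls. Inhibition is given as IC50.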
structure (smiles),measurement,setting,value
Cc1ccc2c(-c3cn(-c4ccc(C5CCNCC5)cc4)nn3)n[nH]c2c1 (as salt: HCl) [Example 265],melting point,,303 °C
"O=C(c1ccc(-n2cc(-c3n[nH]c4ccccc34)nn2)cc1)N1CCOCC1 [Example 1, 3-{1-[4-(morpholin-4-ylcarbonyl)phenyl]-1H-1,2,3-triazol-4-yl}-1H-indazole]",LPS-induced IL-6 release in mice (result in words),"LPS-induced IL-6 release; 10, 30 and 60 mg/kg p.o.",inhibits dose dependently
same,inhibition of LPS-induced IL-6 release in mice,LPS-induced IL-6 release; 10 mpk po,9% INH
same,inhibition of LPS-induced IL-6 release in mice,LPS-induced IL-6 release; 30 mpk po,25% INH
same,inhibition of LPS-induced IL-6 release in mice,LPS-induced IL-6 release; 60 mpk po,66% INH
same,IC50,[1],200 to 2000 nM
same,LPS-induced TNFα release in mice (result in words),"LPS-induced TNFα release; 10, 30 and 60 mg/kg p.o.",inhibits dose dependently
same,inhibition of LPS-induced TNFα release in mice,LPS-induced TNFα release; 10 mpk po,36% INH
same,inhibition of LPS-induced TNFα release in mice,LPS-induced TNFα release; 30 mpk po,43% INH
same,inhibition of LPS-induced TNFα release in mice,LPS-induced TNFα release; 60 mpk po,61% INH
same,IC50,[2],100 to 1000 nM
same,IC50,IRAK1/4 human,100 to 1000 nM
"CN1C2CCC1CC(n1cc(NC(=O)c3ccc(-n4cc(-c5n[nH]c6ccccc56)nn4)cc3)cn1)C2 (centres unmarked) [Example 125, 4-[4-(1H-indazol-3-yl)-1H-1,2,3-triazol-1-yl]-N-[1-(8-methyl-8-azabicyclo[3.2.1]oct-3-yl)-1H-pyrazol-4-yl]benzamide]",IC50,[1],200 to 2000 nM
same,IC50,[2],100 to 1000 nM
same,IC50,IRAK1/4 human,< 100 nM
"C[C@@H]1C[C@H]2[C@@H]3CCC4=CC(=O)C=C[C@]4(C)[C@@]3(F)[C@@H](O)C[C@]2(C)[C@@]1(O)C(=O)CO [dexamethasone, reference compound]",inhibition of LPS-induced IL-6 release in mice,LPS-induced IL-6 release; 1 mpk po,83% INH
same,inhibition of LPS-induced TNFα release in mice,LPS-induced TNFα release; 1 mpk po,97% INH
